Source: patent publication US10450288B2, “Hydroxy formamide derivatives and their use” (GLAXOSMITHKLINE INTELLECTUAL PROPERTY (NO.2) LIMITED, priority 2014, dated 2019)

Assays:
[1] = system: human cardiac fibroblasts; test: Cell-based inhibition assay of mature collagen deposition (immunostaining); conditions: Cardiac fibroblast, read-out: pIC50, mature collagen cellular inhibition assay (converted)
Experimental: Cell-Based Inhibition Assay of Generation of Procollagen I C-Terminal Propeptide (PICP) and Mature Collagen:
An adaptation of the collagen deposition assay described by Chen, C. Z. C., et al., British Journal of Pharmacology, 2009, 158, 1196-1209 was used to examine effect of compounds on procollagen I processing and collagen deposition. In the adapted assay, human cardiac fibroblasts were utilized. Processing of procollagen I was determined by a PICP ELISA assay and deposition of mature collagen was determined by immunostaining.
Human cardiac fibroblasts were cultured and maintained until passage 6 in FGM-3 media (Lonza, #CC-3132) in a 37° C. humidified incubator with 5% CO2. They were then seeded in 96-well black wall, clear bottom plates at 10,000 to 15,000 cells per well in eagle's minimum essential media (EMEM, ATCC #30-2003) containing 10% fetal bovine serum (FBS, Life Technologies #10082147), 1% Glutamax (Life Technologies #35050061) and 1% Penicillin and Streptomycin (Life Technologies #15070063). These cultures were placed in 37° C. incubator. The next day, media were removed by aspiration and cells were rinsed with phosphate buffered saline. Crowding media (also called ficoll media) was prepared by adding 112.5 mg/ml of ficoll70 and 75 mg/ml ficoll400 (GE healthcare #17-0310-10 and 17-0300-10, respectively), 100 μM ascorbic acid, 1% Glutamax and 1% Penicillin and Streptomycin to EMEM media. Test compounds (dissolved in DMSO) were diluted into crowding media and then added to the cells. Final concentration of DMSO in crowding media was less than 0.3%. Cells were treated for 24 to 48 hr in a 37° C. incubator. At the end of the treatment period, cell media were collected. The level of PICP in the media were determined by a PICP ELISA assay (Quidel #8003) following the manufacturer's protocol. Potencies of test compounds were calculated by fitting PICP levels, relative to untreated controls, to log (inhibitor) vs. response equation using Graphpad Prism software 5.0 and expressed as pIC50.
For some compounds, deposition of mature collagen was measured by immunostaining in addition to PICP levels. At the end of the treatment period, cells on culture plate were fixed with 100% methanol (prechilled to −20° C.) for 10 min. Then the cells were immunostained with mouse anti-mature collagen I antibody (1:500 dilution, Sigma#C2456), anti-mouse secondary antibody Alexa647 (1:500 dilution, Invitrogen#A21236) and Hoechst (for nuclei, 2 μg/ml, Invitrogen#H3596). Fluorescent image acquisition was done using the Operetta High Content Imaging system (Perkin Elmer). For each image field, the intensity of mature collagen staining was normalized with the number of nuclei. Normalized collagen levels were used to calculate the potency of test compounds with Graphpad Prism software, as described above.

[2] = system: human cardiac fibroblasts; test: Cell-based inhibition assay of generation of procollagen I C-terminal propeptide (PICP), PICP ELISA; conditions: Cardiac fibroblast, read-out: pIC50, PICP cellular inhibition assay (converted)
Summary of the method: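 Cardiac fibroblasts (passage ≤6) treated 24–48 h at 37 °C with compounds in ficoll crowding medium containing 100 μM ascorbic acid, DMSO <0.3%. PICP secreted into the medium was quantified by ELISA, normalised to untreated controls and fitted to log(inhibitor)–response to give pIC50.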

[3] = human cardiac fibroblasts, crowding media, 24 to 48 hr, collagen I immunostaining normalized to nuclei
[4] = human cardiac fibroblasts, crowding media, 24 to 48 hr, PICP ELISA of media

CCCCC[C@H](CN(O)C=O)C(=O)NCNC(=O)c1ccc(-c2ccccc2)o1 [Example 5, (R)-N-((2-((N-hydroxyformamido)methyl)heptanamido)methyl)-5-phenylfuran-2-carboxamide]
IC50 ([1]; Homo sapiens): < 1 µM | IC50 ([2]; Homo sapiens): < 3.98 µM

CCCCC[C@@H](C(=O)NCNC(=O)c1ccc(-c2ccccc2)o1)[C@@H](CC)N(O)C=O [Example 24, N-(((R)-2-((R)-1-(N-hydroxyformamido)propyl)heptanamido)methyl)-5-phenylfuran-2-carboxamide]
IC50 [1, 3]: < 1 µM | IC50 [2, 4]: < 3.98 µM

CCCCC[C@@H](C(=O)NCNC(=O)c1ccc(-c2cc(OCC)cc(C(=O)O)c2)o1)[C@@H](CC)N(O)C=O [Example 39, 3-ethoxy-5-(5-((((R)-2-((R)-1-(N-hydroxyformamido)propyl)heptanamido)methyl)carbamoyl)furan-2-yl)benzoic acid]
IC50 [1, 3]: < 1 µM | IC50 [2, 4]: < 3.98 µM

CCCCC[C@@H](C(=O)NCNC(=O)c1ccc(-c2cc(OCC)cc(C(=O)N[C@@H](CC(=O)O)C(=O)OC(C)(C)C)c2)o1)[C@@H](CC)N(O)C=O [Example 47, (S)-4-(tert-butoxy)-3-(3-ethoxy-5-(5-((((R)-2-((R)-1-(N-hydroxyformamido)propyl)heptanamido)methyl)carbamoyl)furan-2-yl)benzamido)-4-oxobutanoic acid]
IC50 [1, 3]: < 1 µM | IC50 [2, 4]: < 3.98 µM

CCCCC[C@@H](C(=O)NCNC(=O)c1ccc(-c2ccc(C(=O)N[C@@H](CC(=O)O)C(=O)O)c(OCC)c2)o1)[C@@H](CC)N(O)C=O [Example 74, (S)-2-(2-ethoxy-4-(5-((((R)-2-((R)-1-(N-hydroxyformamido)propyl)heptanamido)methyl)carbamoyl)furan-2-yl)benzamido)succinic acid]
IC50 [1, 3]: < 1 µM | IC50 [2, 4]: < 3.98 µM

CCCCC[C@@H](C(=O)NCNC(=O)c1ccc(-c2ccc(CC(=O)N[C@@H](CC(=O)O)C(=O)O)c(OCC)c2)o1)[C@@H](CC)N(O)C=O [Example 75, (S)-2-(2-(2-ethoxy-4-(5-((((R)-2-((R)-1-(N-hydroxyformamido)propyl)heptanamido)methyl)carbamoyl)furan-2-yl)phenyl)acetamido) succinic acid]
IC50 [1, 3]: < 1 µM | IC50 [2, 4]: < 3.98 µM

CCCCC[C@@H](C(=O)NCNC(=O)c1ccc(-c2cc(OCC)cc(C(=O)N[C@@H](CC(=O)O)C(=O)O)c2)o1)[C@@H](CC)N(O)C=O [Example 77, (S)-2-(3-ethoxy-5-(5-((((R)-2-((R)-1-(N-hydroxyformamido)propyl)heptanamido)methyl)carbamoyl)furan-2-yl)benzamido) succinic acid]
IC50 [1, 3]: < 1 µM | IC50 [2, 4]: < 3.98 µM

CCCCC[C@@H](C(=O)NCNC(=O)c1ccc(-c2cccc(C3(C(=O)O)CC3)c2)o1)[C@@H](CC)N(O)C=O [Example 80, 1-(3-(5-((((R)-2-((R)-1-(N-hydroxyformamido)propyl)heptanamido)methyl)carbamoyl)furan-2-yl)phenyl) cyclopropanecarboxylic acid]
IC50 [1, 3]: < 1 µM | IC50 [2, 4]: < 3.98 µM

CCCCC[C@@H](C(=O)NCNC(=O)c1ccc(-c2cc(OCC)cc(C(=O)O)c2O)o1)[C@@H](CC)N(O)C=O [Example 81, 5-ethoxy-2-hydroxy-3-(5-((((R)-2-((R)-1-(N-hydroxy-formamido)propyl)heptanamido)methyl)carbamoyl)furan-2-yl)benzoic acid]
IC50 [1, 3]: < 1 µM | IC50 [2, 4]: < 3.98 µM

CCCCC[C@@H](C(=O)NCNC(=O)c1ccc(-c2cc(OCCC)cc(C(=O)O)c2)o1)[C@@H](CC)N(O)C=O [Example 82]
IC50 [1, 3]: < 1 µM | IC50 [2, 4]: < 3.98 µM

CCCCC[C@@H](C(=O)NCNC(=O)c1ccc(-c2ccc(C(=O)N(CC(=O)O)CC(=O)O)c(OCC)c2)o1)[C@@H](CC)N(O)C=O [Example 86, 2,2′-((2-ethoxy-4-(5-((((R)-2-((R)-1-(N-hydroxy-formamido)propyl)heptanamido)methyl)carbamoyl)furan-2-yl)benzoyl)azanediyl) diacetic acid]
IC50 [1, 3]: < 1 µM | IC50 [2, 4]: < 3.98 µM

CCCCC[C@@H](C(=O)NCNC(=O)c1ccc(-c2cc(OCC)cc(C(=O)N[C@@H](CCC(=O)O)C(=O)O)c2)o1)[C@@H](CC)N(O)C=O [Example 93, (S)-2-(3-ethoxy-5-(5-((((R)-2-((R)-1-(N-hydroxy-formamido)propyl)heptanamido)methyl)carbamoyl)furan-2-yl)benzamido) pentanedioic acid]
IC50 [1, 3]: < 1 µM | IC50 [2, 4]: < 3.98 µM

CCCCC[C@@H](C(=O)NCNC(=O)c1ccc(-c2cc(OCC)cc(P(=O)(O)O)c2)o1)[C@@H](CC)N(O)C=O [Example 96, (3-ethoxy-5-(5-((((R)-2-((R)-1-(N-hydroxyformamido)propyl)heptanamido)methyl)carbamoyl)furan-2-yl)phenyl)phosphonic acid]
IC50 [1, 3]: < 1 µM | IC50 [2, 4]: < 3.98 µM

CCCCC[C@@H](C(=O)NCNC(=O)c1ccc(-c2ccc(P(=O)(O)O)c(OCC)c2)o1)[C@@H](CC)N(O)C=O [Example 98, (2-ethoxy-4-(5-((((R)-2-((R)-1-(N-hydroxyformamido)propyl)heptanamido)methyl)carbamoyl)furan-2-yl)phenyl)phosphonic acid]
IC50 [1, 3]: < 1 µM | IC50 [2, 4]: < 3.98 µM

CCCCC[C@@H](C(=O)NCNC(=O)c1ccc(-c2cc(CP(=O)(O)O)cc(OCC)c2)o1)[C@@H](CC)N(O)C=O [Example 99, (3-ethoxy-5-(5-((((R)-2-((R)-1-(N-hydroxy-formamido)propyl)heptanamido)methyl)carbamoyl)furan-2-yl)benzyl) phosphonic acid]
IC50 [1, 3]: < 1 µM | IC50 [2, 4]: < 3.98 µM

CCCCC[C@@H](C(=O)NCNC(=O)c1ccc(-c2cc(OCC)c(F)c(C(=O)O)c2)o1)[C@@H](CC)N(O)C=O [Example 111, 3-ethoxy-2-fluoro-5-(5-((((R)-2-((R)-1-(N-hydroxy-formamido)propyl)heptanamido)methyl)carbamoyl)furan-2-yl)benzoic acid]
IC50 [1, 3]: < 1 µM | IC50 [2, 4]: < 3.98 µM

CCCCC[C@@H](C(=O)NCNC(=O)c1ccc(-c2ccc(C(=O)NCP(=O)(O)O)c(O)c2)o1)[C@@H](CC)N(O)C=O [Example 142, ((2-hydroxy-4-(5-((((R)-2-((R)-1-(N-hydroxyformamido)propyl)heptanamido)methyl)carbamoyl)furan-2-yl)benzamido)methyl)phosphonic acid]
IC50 [2, 4]: < 3.98 µM

CCCCC[C@@H](C(=O)NCNC(=O)c1ccc(-c2ccc(C(=O)NCP(=O)(O)O)cc2)o1)[C@@H](CC)N(O)C=O [Example 143, ((4-(5-((((R)-2-((R)-1-(N-hydroxyformamido)propyl)heptanamido)methyl)carbamoyl)furan-2-yl)benzamido)methyl)phosphonic acid]
IC50 [2, 4]: < 3.98 µM

CCCCC[C@@H](C(=O)NCNC(=O)c1ccc(-c2ccc(C(=O)NCP(=O)(O)O)c(C)c2)o1)[C@@H](CC)N(O)C=O [Example 144, ((4-(5-((((R)-2-((R)-1-(N-hydroxyformamido)propyl)heptanamido)methyl)carbamoyl)furan-2-yl)-2-methylbenzamido)methyl)phosphonic acid]
IC50 [2, 4]: < 3.98 µM

CCCCC[C@@H](C(=O)NCNC(=O)c1ccc(-c2cc(OCC(=O)O)cc(P(=O)(O)O)c2)o1)[C@@H](CC)N(O)C=O [Example 145, 2-(3-(5-((((R)-2-((R)-1-(N-hydroxyformamido)propyl)heptanamido)methyl)carbamoyl)furan-2-yl)-5-phosphonophenoxy) acetic acid]
IC50 [2, 4]: < 3.98 µM

CCCCC[C@@H](C(=O)NCNC(=O)c1ccc(-c2ccc(C(=O)O)c(O)c2)o1)[C@@H](CC)N(O)C=O [Example 146, 2-hydroxy-4-(5-((((R)-2-((R)-1-(N-hydroxyformamido)propyl)heptanamido)methyl)carbamoyl)furan-2-yl)benzoic acid]
IC50 [2, 4]: < 3.98 µM
